# Columns and labels:
# NSC-34 cells = assay: Stress-induced change of pre-miRNA processing in NSC-34 cells (qPCR); type: cell-based; details: 1 hr, 0.5 mM
# Method: (FIG. 7A) miRNA expression level analysis in the motor neuron cell line NSC-34, treated with 6.25 nM Thapsigargin for 24 hrs, relative to cells treated with carrier alone (DMSO). Shown are average and s.d. of qPCR analyses of 3 independent experiments. Pre-miRNAs (light grey, normalized to Gapdh) and miRNAs (dark grey, normalized to Snord68). (FIG. 7B) mRNA levels encoding for proteins involved in the canonical stress response, normalized to the expression of beta-actin. (FIG. 7C) miRNA expression level analysis in mouse embryonic motor neurons, treated with 5 nM Thapsigargin for 72 hrs, relative to cells treated with carrier alone (DMSO). Shown are average and s.d. of qPCR analyses of three independent experiments. Pre-miRNAs (light grey, normalized to Gapdh and beta actin) and miRNAs (dark grey, normalized to Snord70). (FIG. 7D) mRNA markers of the canonical stress response, normalized to the expression of beta-actin. miRNA expression level analysis in NSC-34 cells, treated with Paraquat (PQ) (1 mM, 12 hrs, FIG. 7E) and sodium arsenite (0.5 mM, 60 min, FIG. 7F). pre-miRNA normalized to beta-actin mRNA (FIGS. 7E-F) and miRNAs to 5S (FIG. 7E) or to U6 and 5S (FIG. 7F). (FIGS. 7G-I) miRNA expression level analysis in mouse embryonic Wild-type fibroblasts (light grey) or phospho-mutant eIF2a S51A cells (black) treated with Thapsigargin (5 nM, 72 hrs) relative to carrier alone. Pre-miRNA (FIG. 7G) and mature miRNA (FIG. 7H) levels normalized to Gapdh and Snord68, respectively. (FIG. 7I) ATF4, which is induced by phosphorylation of eIF2a, was not induced in phospho-mutant eIF2a S51A cells. Significance of p-values from ANOVA tests is indicated by *p<0.05; **p<0.01. (FIGS. 7J-K) Western-Blot analysis of lysates from untreated NSC-34 cells (control) or cells treated with sodium arsenite (0.5 mM, 60 min). Phospho-specific immunodetection of eIF2a S51 phosphorylation (peIF2a) and total eIF2a levels (FIG. 7J), Dicer and Ago2 levels (FIG. 7K). (FIG. 7L) miRNA expression level analysis in mouse embryonic fibroblasts treated with Puromycin (1 μg/ml, 24 hrs), relative to cells treated with carrier alone (water). Pre-miRNAs (light grey, normalized to Gapdh) and miRNAs (dark grey, normalized to Snord68).
# RNA was extracted using Tri reagent (Molecular Research Center Inc.) or Qiazol with consecutive use of the miRNeasy Mini Kit (Qiagen). Pre-miRNA and miRNA reverse transcription was performed using miScript Kits No. I & II (Qiagen). Quantitative analysis of miRNA and pre-miRNA expression performed in more than 3 independent biological repeats and additionally in technical duplicates with StepOnePlus quantitative Real-Time PCR System and 2-sided ANOVA-test performed with DataAssist Software (Life technologies Inc.). Next-generation sequencing of mouse precursor miRNAs and mature miRNAs was performed on two independent experimental repeats, as described in Newman et al. [Newman et al. (2011) RNA 17(10): 1795-1803]. miRNAs were normalized to spiked-in controls and pre-miRNAs were normalized to Snord72 and Snord95.
# Stress and cytoplasmic stress granules (SGs) emerge as major pathogenic mechanisms of ALS [Kim et al. (2014) Nat Genet 46(2): 152-160]. Stress pathways are thought to control miRNA activity [Etude and Hornstein, EMBO J. (2014) July 1; 33(13):1428-37], but the idea that cellular stress might broadly regulate miRNA biogenesis was not yet tested. This hypothesis was tested herein by measurement of the relative expression levels of mature miRNAs and their precursors, pre-miRNAs, which provides a proxy for the efficacy of Dicer complex activity. […] Two other chemicals were tested that drive oxidative stress, namely Paraquat (PQ, 12 hrs, 1 mM) and sodium arsenite (1 hr, 0.5 mM). […] Therefore, several different cellular stress pathways negatively regulate miRNA biogenesis.
# eIF2a = assay: Western blot of eIF2a S51 phosphorylation in NSC-34 cells; type: cell-based; details: 0.5 mM; 1 hr
# Method: (FIG. 7A) miRNA expression level analysis in the motor neuron cell line NSC-34, treated with 6.25 nM Thapsigargin for 24 hrs, relative to cells treated with carrier alone (DMSO). Shown are average and s.d. of qPCR analyses of 3 independent experiments. Pre-miRNAs (light grey, normalized to Gapdh) and miRNAs (dark grey, normalized to Snord68). (FIG. 7B) mRNA levels encoding for proteins involved in the canonical stress response, normalized to the expression of beta-actin. (FIG. 7C) miRNA expression level analysis in mouse embryonic motor neurons, treated with 5 nM Thapsigargin for 72 hrs, relative to cells treated with carrier alone (DMSO). Shown are average and s.d. of qPCR analyses of three independent experiments. Pre-miRNAs (light grey, normalized to Gapdh and beta actin) and miRNAs (dark grey, normalized to Snord70). (FIG. 7D) mRNA markers of the canonical stress response, normalized to the expression of beta-actin. miRNA expression level analysis in NSC-34 cells, treated with Paraquat (PQ) (1 mM, 12 hrs, FIG. 7E) and sodium arsenite (0.5 mM, 60 min, FIG. 7F). pre-miRNA normalized to beta-actin mRNA (FIGS. 7E-F) and miRNAs to 5S (FIG. 7E) or to U6 and 5S (FIG. 7F). (FIGS. 7G-I) miRNA expression level analysis in mouse embryonic Wild-type fibroblasts (light grey) or phospho-mutant eIF2a S51A cells (black) treated with Thapsigargin (5 nM, 72 hrs) relative to carrier alone. […]
smiles,measurement,setting,value
O=[As]O [sodium arsenite],mature miRNAs,NSC-34 cells,down-regulation of mature miRNAs
same,pre-miRNA levels,NSC-34 cells,up-regulation of pre-miRNA levels
same,phosphorylation of eIF2a,eIF2a,sufficient to induce the phosphorylation of eIF2a

# — patent US10159670B2, “Methods of diagnosing and treating motor neuron diseases and other cellular stress-related diseases” (priority 2012, dated 2018)
